{"source": "patent US20210115106A1", "about": "“MODIFIED T CELL RECEPTORS” (JANUX THERAPEUTICS, INC., priority 2017, published 2021)", "key": {"Neutravidin [1]": {"biological_target": "T1, Neutravidin (Gallus gallus, UniProt P02701)", "test": "Primary phagemid binding ELISA, Neutravidin control wells (TCR-1 panning)", "conditions": "ELISA signal; Neutravidin alone"}, "TCR-1 [2]": {"tested_on": "TCR-1", "test": "Secondary pMHC phagemid competition ELISA on TCR-1", "format": "binding", "conditions": "for Secondary pMHC phagemid competition ELISA binding with 200 nM pMHC competitor / Secondary pMHC phagemid competition ELISA IC-3 binding no pMHC competitor: ELISA signal; for Secondary pMHC phagemid competition ELISA binding with 200 nM pMHC competitor: 200 nM Human MAGE-A3 pMHC competitor; for % binding with pMHC competition: TCR-1, 200 nM pMHC competitor relative to no competitor"}, "TCR-1 [3]": {"tested_on": "TCR-1", "test": "Primary phagemid binding ELISA, TCR-1 wells", "conditions": "ELISA signal; phagemid supernatant on Neutravidin captured biotin-conjugated TCR-1"}, "TCR-8 [4]": {"tested_on": "TCR-8", "test": "Primary phagemid binding ELISA, TCR-8 wells", "conditions": "ELISA signal; phagemid supernatant on Neutravidin captured biotin-conjugated TCR-8"}, "Neutravidin [5]": {"biological_target": "T1, Neutravidin", "test": "Primary phagemid binding ELISA, Neutravidin control wells (TCR-8 panning)", "conditions": "ELISA signal; Neutravidin alone", "method": "The next day the deep well plates were centrifuged to separate the soluble phagemid from the E. coli cells. The phagemid containing supernatants were then combined with PBS-Tween 20 (0.05%)+BSA (1%) blocking buffer and incubated in ELISA wells containing Neutravidin captured biotin-conjugated TCR-8 (Table 1) or Neutravidin alone. After binding at 4 degrees the plates were washed and specifically bound phage were detected by anti-m13 HRP conjugated antibodies using standard TMB-based chromogenic ELISA procedures. Daughter plates or individual wells were subjected to standard DNA sequencing for clonal peptide sequence identification."}, "TCR-8 [6]": {"tested_on": "TCR-8", "test": "Secondary pMHC phagemid competition ELISA on TCR-8", "format": "binding"}, "[7]": {"tested_on": "TCR-1, TCR-8, TCR-9, TCR-10", "test": "BLI binding specificity of Peptide-5 against TCR-1 and closely related TCRs", "conditions": "TCRs from 50 nM or at 100 uM on saturating Peptide-5", "method": "The other TCRS chosen are closely related to the target TCR-1. BLI based kinetic binding of TCR-land closely related TCRS, TCR-8, TCR-9, and TCR-10 to inhibitory peptides was measured using a ForteBio Octet RED96 instrument. Biotinylated peptides were first captured on streptavidin biosensors. Sensors were quenched using excess biocytin and then baselined in buffer. TCRs were titrated in a 2-fold dilution series starting from 50 nM and were associated onto the inhibitory peptide loaded biosensor. Association signal was monitored in real-time. Biosensors were then transferred to buffer and the dissociation of TCR was measured in real-time. Response data was baseline corrected and fit to a 1:1 binding model used to calculate association and dissociation rates.\nBLI based kinetic binding of TCR-land closely related TCRS, TCR-8, TCR-9, and TCR-10 to inhibitory peptides was measured using a ForteBio Octet RED96 instrument. Biotinylated peptides were first captured on streptavidin biosensors until signal saturation. Sensors were quenched using excess biocytin and then baselined in buffer. TCRs were associated 100 uM onto the inhibitory peptide loaded biosensor. Association signal was monitored in real-time. Biosensors were then transferred to buffer and the dissociation of TCR was measured in real-time. […]"}, "[8]": {"biological_target": "TCR-1 binding to MAGE-A3 pMHC", "test": "Peptide inhibition of TCR-1 kinetic binding to MAGE-A3 pMHC (BLI)", "conditions": "50 nM TCR-1; result in words", "method": "Zero concentration of inhibitory peptide (100% binding) or zero concentration of TCR (0% binding) was used as a control. Biotinylated pMHC was captured on streptavidin biosensors. Sensors were quenched using excess biocytin and then baselined in buffer. Inhibitory peptide and TCR mixtures were associated onto the pMHC loaded biosensor. Association signal was monitored in real-time. Biosensors were then transferred to buffer and the dissociation signal was measured in real-time.\nZero concentration of inhibitory peptide (100% binding) or zero concentration of TCR (0% binding) was used as a control. Biotinylated pMHC was captured on streptavidin biosensors. Sensors were quenched using excess biocytin and then baselined in buffer. […] Association signal was monitored in real-time. Biosensors were then transferred to buffer and the dissociation signal was measured in real-time. Data was baseline corrected. The maximal association signal was normalized from 100% (0 uM inhibitory peptide control) to 0% (0 uM TCR control) and plotted versus log-scale inhibitory peptide concentration. […]\nInhibitory peptide titrated in a 2-fold dilution series starting from 100 uM was first incubated with a constant concentration of 50 nM TCR. […] Association signal was monitored in real-time. Biosensors were then transferred to buffer and the dissociation signal was measured in real-time. […]"}, "TCR-1 [9]": {"biological_target": "TCR-1", "test": "ELISA-based binding of TCR-1 to synthetic peptides", "conditions": "result in words; numbers are in Table 3, not printed here", "method": "ELISA-based binding: High binding plates were first coated with neutravidin. Neutravidin coated plates were blocked using bovine serum albumin in buffer and washed. Biotinylated peptide or pMHC at a single concentration of 100 nM was captured on neutravidin coated plates, quenched using excess biocytin, and washed. […] TCR was then titrated onto the peptide or pMHC captured plates for 1 hour and washed. […] Plates were then developed using tetramethylbenzidine (TMB) for 5-10 min and stopped using acid.\nHigh binding plates were first coated with neutravidin. Neutravidin coated plates were blocked using bovine serum albumin in buffer and washed. Biotinylated peptide at a single concentration of 100 nM was captured on neutravidin coated plates, quenched using excess biocytin, and washed. […] TCR was then titrated onto the peptide captured plates for 1 hour and washed. […] Plates were then developed using tetramethylbenzidine (TMB) for 5-10 min and stopped using acid. Absorbance at 450 nm was measured for each plate and plotted versus log-scale TCR concentration. […]\nHigh binding plates were first coated with neutravidin. Neutravidin coated plates were blocked using bovine serum albumin in buffer and washed. […] Absorbance at 450 nm was measured for each plate and plotted versus log-scale TCR concentration."}, "[10]": {"biological_target": "TCR-1 binding to MAGE-A3 pMHC", "test": "Peptide inhibition of TCR-1 binding to MAGE-A3 pMHC in competitive binding ELISA", "conditions": "1 nM TCR-1, result in words", "method": "Peptide inhibition in competitive binding ELISAs: High binding plates were first coated with neutravidin. Neutravidin coated plates were blocked using bovine serum albumin in buffer and washed. Biotinylated pMHC at a single concentration of 100 nM was captured on neutravidin coated plates, quenched using excess biocytin, and washed. […] Inhibitory peptide and TCR mixtures were then added to the pMHC captured plates for 30 min and washed. […] Plates were then developed using tetramethylbenzidine (TMB) for 5-10 min and stopped using acid.\nHigh binding plates were first coated with neutravidin. Neutravidin coated plates were blocked using bovine serum albumin in buffer and washed. Biotinylated pMHC at a single concentration of 100 nM was captured on neutravidin coated plates, quenched using excess biocytin, and washed. […] Inhibitory peptide and TCR mixtures were then added to the pMHC captured plates for 30 min and washed. […] Plates were then developed using tetramethylbenzidine (TMB) for 5-10 min and stopped using acid. Absorbance at 450 nm was measured for each plate and plotted versus log-scale inhibitory peptide concentration.\nHigh binding plates were first coated with neutravidin. Neutravidin coated plates were blocked using bovine serum albumin in buffer and washed. […] Absorbance at 450 nm was measured for each plate and plotted versus log-scale inhibitory peptide concentration."}, "Neutravidin [11]": {"biological_target": "T1, Neutravidin", "test": "primary phagemid binding ELISA, Neutravidin alone"}}, "note": "Ends that are not written are not given here.", "data": [{"molecule": "GGDVRCFMRMMECVLL [J289_D10]", "values": [{"measurement": "Primary Phagemid binding ELISA Neutravidin control wells", "setting": "Neutravidin [1]", "result": 0.120}, {"measurement": "Secondary pMHC phagemid competition ELISA binding with 200 nM pMHC competitor", "setting": "TCR-1 [2]", "result": 0.132}, {"measurement": "Secondary pMHC phagemid competition ELISA IC-3 binding no pMHC competitor", "setting": "TCR-1 [2]", "result": 1.881}, {"measurement": "% binding with pMHC competition", "setting": "TCR-1 [2]", "result": 7, "unit": "%"}]}, {"molecule": "GGLADYCEHPMCYWYS [J250_G02]", "values": [{"measurement": "Primary Phagemid binding ELISA Neutravidin control wells", "setting": "Neutravidin [1]", "result": 0.152}, {"measurement": "Primary Phagemid binding ELISA TCR-1 wells", "setting": "TCR-1 [3]", "result": 3.122}]}, {"molecule": "GGLADYCEHPMCYWYS [J272_B10]", "values": [{"measurement": "Primary Phagemid binding ELISA Neutravidin control wells", "setting": "Neutravidin [1]", "result": 0.068}, {"measurement": "Secondary pMHC phagemid competition ELISA binding with 200 nM pMHC competitor", "setting": "TCR-1 [2]", "result": 0.075}, {"measurement": "Secondary pMHC phagemid competition ELISA IC-3 binding no pMHC competitor", "setting": "TCR-1 [2]", "result": 1.683}, {"measurement": "% binding with pMHC competition", "setting": "TCR-1 [2]", "result": 4, "unit": "%"}]}, {"molecule": "GGVICENWQGDRVCWF [J308_A03] (phagemid-displayed)", "values": [{"measurement": "Primary phagemid binding ELISA TCR-8 wells", "setting": "TCR-8 [4]", "result": 3.157}, {"measurement": "Primary phagemid binding ELISA Netravidin Control wells", "setting": "Neutravidin [5]", "result": 0.132}]}, {"molecule": "GGVICENWQGDRVCWF [J308_A09] (phagemid-displayed)", "values": [{"measurement": "Secondary pMHC phagemid competition ELISA binding with 100 nM pMHC tetramer competitor", "setting": "TCR-8 [6]; ELISA signal, 100 nM tetrameric human MAGE-A3 pMHC", "result": 0.570}, {"measurement": "Secondary pMHC phagemid competition ELISA TCR-8 binding no pMHC competitor", "setting": "TCR-8 [6]; ELISA signal, no pMHC competitor", "result": 1.877}, {"measurement": "% binding with pMHC competition", "setting": "TCR-8 [6]; TCR-8, 100 nM pMHC tetramer competitor relative to no competitor", "result": 30, "unit": "%"}, {"measurement": "Primary phagemid binding ELISA TCR-8 wells", "setting": "TCR-8 [4]", "result": 3.065}, {"measurement": "Primary phagemid binding ELISA Netravidin Control wells", "setting": "Neutravidin [5]", "result": 0.236}]}, {"molecule": "GGVSCKDVYDEAFCWT [Peptide-5, synthesized with a biotinylated linker and C-terminal amidation]", "values": [{"measurement": "binding specificity for TCR-1 against closely related TCRs", "setting": "[7]", "result": "selective for TCR-1"}, {"measurement": "IC50, inhibition of TCR-1 binding to MAGE-A3 pMHC", "setting": "[8]", "result": "lowest"}]}, {"molecule": "Peptide-24: Peptide-5 alanine scan peptide, substitution of lysine at the 6th amino acid position (GGVSCADVYDEAFCWT-NH2; not fully specified; cysteine pairing not given here; also: biotinylated linker, place not given here)", "values": [{"measurement": "binding EC50 (TCR-1 binding to peptide by ELISA)", "setting": "TCR-1 [9]", "result": "mild improvements"}, {"measurement": "competitive binding IC50", "setting": "[10]", "result": "mild improvement"}]}, {"molecule": "GGDVRCFMRMMECVLL", "note": "[J289_D10]", "values": [{"measurement": "ELISA signal (Neutravidin control wells)", "setting": "Neutravidin [11]", "result": 0.12}]}]}
